The record followed here is patent US20180346473A1, “FUSED BICYCLIC COMPOUNDS” (Akarna Therapeutics, Ltd., priority 2017, published 2018).

SMILES strings stand for the structures. pEC50: −log10 of the molar value.

This test has as its target T1, FXR (Homo sapiens, UniProt Q96RI1).
T1 sequence (Q96RI1 1-486): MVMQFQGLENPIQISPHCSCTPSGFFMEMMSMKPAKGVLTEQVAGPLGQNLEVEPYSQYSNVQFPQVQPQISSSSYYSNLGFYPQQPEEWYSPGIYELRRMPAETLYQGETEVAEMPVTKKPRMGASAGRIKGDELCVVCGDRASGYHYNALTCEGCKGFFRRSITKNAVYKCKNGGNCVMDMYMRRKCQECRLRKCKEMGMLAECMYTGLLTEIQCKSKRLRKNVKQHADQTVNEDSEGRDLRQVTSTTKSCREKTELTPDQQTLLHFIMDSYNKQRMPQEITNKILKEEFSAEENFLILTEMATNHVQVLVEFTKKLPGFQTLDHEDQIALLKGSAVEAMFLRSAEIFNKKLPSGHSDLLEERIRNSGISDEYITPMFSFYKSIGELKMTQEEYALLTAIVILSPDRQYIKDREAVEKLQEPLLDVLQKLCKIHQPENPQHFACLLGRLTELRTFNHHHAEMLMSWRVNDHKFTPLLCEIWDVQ
Put plainly: FXR Agonist Assay (Gaussia luciferase reporter in cells). The format is cell-based. Conditions: 20 hours incubation at 37° C., Gaussia luciferase luminescence, normalized to DMSO control. The protocol:
Starting from 3.33 mM of compound in DMSO solution, a 10-point 3-fold serial dilution was made by diluting 5 μL of compound into 10 μL of DMSO. The serially diluted compound was then diluted 1:33 into DMEM. This medium was then diluted ten-fold into the culture medium with the cells (10 μL/well). All concentration points are assayed in duplicate. Plates were incubated at 37° C. for 20 hours. After the incubation, 20 μL of culture medium were removed from each well and mixed with 50 μL of assay solution (Pierce™ Gaussia Luciferase Flash Assay Kit). The luminescence was measured immediately after addition of the Luc substrate with an Envision microplate reader. The raw data was uploaded to CDD and dose-response curves were generated using the Levenberg-Marquardt algorithm integrated into CDD. A negative control DMSO is included on each plate and used to normalize the data with the CDD built-in normalization function.
Regarding `CC(C)NC(=O)C1=CN(C(=O)c2ccc(F)c(F)c2)CC(C)(C)c2c(C(F)(F)F)n[nH]c21` [Compound 1, (E)-6-(3,4-difluorobenzoyl)-N-isopropyl-4,4-dimethyl-3-(trifluoromethyl)-1,4,5,6-tetrahydropyrazolo[3,4-d]azepine-8-carboxamide], the pEC50 – broadly, the negative decadic logarithm of the EC50, by convention in mol/L – is more than 6.30. The figure for `CC(C)OC(=O)C1=CN(C(=O)c2ccc(OCCN3CCOCC3)cc2)CC(C)(C)c2c(C(F)(F)F)n[nH]c21` [Compound 2, (E)-isopropyl 4,4-dimethyl-6-(4-(2-morpholinoethoxy)benzoyl)-3-(trifluoromethyl)-1,4,5,6-tetrahydropyrazolo[3,4-d]azepine-8-carboxylate] is more than 6.30; for `CC(C)OC(=O)C1=CN(C(=O)c2ccc(OCCN3CCOCC3)c(F)c2)CC(C)(C)c2c(C(F)(F)F)n[nH]c21` [Compound 3, (E)-isopropyl 6-(3-fluoro-4-(2-morpholinoethoxy)benzoyl)-4,4-dimethyl-3-(trifluoromethyl)-1,4,5,6-tetrahydropyrazolo[3,4-d]azepine-8-carboxylate] it is more than 6.30.
